Legend:
[1] = system: patients with PH post-LVAD implantation; test: Phase 2 study in PH post-LVAD implantation: change in WHO functional class; type: in vivo, human
Procedure: (§1) This is a double-blind, placebo-controlled, multicenter, parallel-group Phase 2 study assessing the efficacy and safety of macitentan in PH post-LVAD implantation. Approximately 57 adult patients with PH post-LVAD implantation were randomized (1:1) to receive either macitentan 10 mg, or matching placebo, once daily orally.
Change from Baseline to Week 12 in WHO FC. See, Table 10.
WHO FC is summarized by time point and treatment group using frequency tables. Changes from Baseline in WHO FC are dichotomized as worsening (i.e., change >0) versus no change or improvement (i.e., change≤0). Worsening is analyzed using a logistic regression model with covariates for treatment group and WHO FC.

[2] = humans, cited from earlier work
[3] = system: patients with PH post-LVAD implantation; test: Phase 2 study in PH post-LVAD implantation: serum NT-proBNP; type: in vivo, human; details: 10 mg once daily
Procedure: as §1
A blood sample is drawn at Randomization (Visit 2) and EOT (Visit 5) for the analysis of serum NT-proBNP. See, Table 12 for serum NT-proBNP at Week 12 compared to baseline for the FAS.
NT-proBNP is summarized by time point and treatment group using descriptive statistics as well as geometric means and CVs. The ratio of Week 12 to Baseline NT-proBNP is summarized similarly. The ratio versus Baseline in NT-proBNP is log-transformed and analyzed using an ANCOVA with covariates for treatment group and Baseline log NT-proBNP.

[4] = cited from earlier work
[5] = FAS, N = 25, baseline to Week 12

SMILES: CCCNS(=O)(=O)Nc1ncnc(OCCOc2ncc(Br)cn2)c1-c1ccc(Br)cc1 [Macitentan, propylsulfamic acid [5-(4-bromo-phenyl)-6-[2-(5-bromo-pyrimidin-2-yloxy)-ethoxy]-pyrimidin-4-yl]-amide]
- WHO FC Improvement (change < 0), number of patients [1, 5]: 10
- WHO FC Improvement (change < 0), percent of patients [1, 5]: 40.0%
- WHO FC No change (change = 0), number of patients [1, 5]: 13
- WHO FC No change (change = 0), percent of patients [1, 5]: 52.0%
- WHO FC Worsening (change > 0), number of patients [1, 5]: 2
- WHO FC Worsening (change > 0), percent of patients [1, 5]: 8.0%
- Change in WHO FC, Odds Ratio Macitentan relative to Placebo (95% Confidence Interval) ([1]; ordered logistic regression adjusting for baseline, higher OR = better change): 1.333 (0.417, 4.255)
- time to steady state ([2]; 10 mg oral dose once a day): third day
- absorption into the plasma [2]: absorbed slowly
- half-life [2]: about 16 hours
- NT-proBNP at Week 12/EOT, Mean (std) ([3]; FAS, n 22): 2435.4 (2620.75) ng/L
- NT-proBNP at Week 12/EOT, Median ([3]; FAS, n 22): 1098.0 ng/L
- NT-proBNP (Geometric mean ratio − 1) × 100% ([3]; Week 12, FAS): 10.9%
- NT-proBNP, Comparison to Placebo, Geometric Mean Ratio ([3]; Week 12, FAS): 1.1086
- NT-proBNP Ratio to Baseline, Mean (std) ([3]; Week 12: Baseline, FAS, n 22): 0.8 (0.57)
- NT-proBNP Ratio to Baseline, Median ([3]; Week 12: Baseline, FAS, n 22): 0.6
- Flushing/feeling of warmth/redness of face and/or hands, Frequency observed with macitentan 10 mg [4]: Uncommon
- Headache, Frequency observed with macitentan 10 mg [4]: Very
- Photophobia, Frequency observed with macitentan 10 mg [4]: Not known
- Sinusitis/rhinitis/nasal congestion, Frequency observed with macitentan 10 mg [4]: Common

From patent US20240299384A1, “METHODS FOR TREATING PULMONARY HYPERTENSION IN PATIENTS WITH LEFT VENTRICULAR ASSIST DEVICE IMPLANTATION” (ACTELION PHARMACEUTICALS LTD, priority 2021, published 2024)
